Results: patent publication US9517278B2, “Compound and photoacoustic imaging contrast medium containing the compound” (CANON KABUSHIKI KAISHA, priority 2012, dated 2016)

Key:
[1] = rat, ICG administered to the blood alone; cited from earlier work
[2] = in vivo; cited from earlier work
colon 26 cell line = test: Tumor accumulation evaluated by photoacoustic imaging; assay type: in vivo; conditions: colon 26 tumor-bearing mouse, tail vein, 32 nmol as dye, 797 nm
Protocol: Photoacoustic signals were measured before a prepared compound was administered and at any given timing after administration by using the commercially available photoacoustic imaging apparatus (Nexus128, produced by Endra Inc.), so that three-dimensional reconfiguration data were obtained respectively. The photoacoustic intensity in a region of interest (ROI) was measured on the basis of the resulting three-dimensional reconfiguration data.
In the example according to the present invention, the amount of migration of the compound to a tumor mass was evaluated using a tumor-bearing model mouse. […] The fluorescent imaging was performed using IVIS (registered trademark) Imaging System and fluorescent intensity of a region of interest (ROI) of the tumor portion was measured.
In order to evaluate the tumor accumulation of the compound, a contrast medium was administered to a tail vein of a tumor-bearing mouse which had been transplanted a colon 26 cell line. […] Then, tumor accumulation 1 day after administration of the contrast medium into the tumor-bearing mouse was evaluated by photoacoustic imaging and fluorescence. […] Subsequently, the relative photoacoustic signal intensity 1 day after administration relative to before administration was calculated. The amount of accumulation into a tumor of the mouse was evaluated using fluorescence, as described below. […]

[3] = Evaluation of retentivity of compound in blood (fluorescent intensity of blood); assay type: in vivo, nude mouse
Protocol: In order to examine the retentivity of the compound in blood, various compounds were administered to veins of nude mouse tails and the amounts of compounds remaining in blood were evaluated. […] The method for producing the compound was as described in Example 1. In Table 4, k represents 1,000. For example, 5 k represents 5,000.
The retentivity of the compound in blood was evaluated as described below. Blood samples were taken from a mouse 1 hour, 3 hours, 1 day, 2 days, and 1 week after administration, and the fluorescent intensity of the blood was measured using IVIS (registered trademark) Imaging System 200 Series (produced by Caliper Life Science Inc.). The amount of administration to the mouse was 0.5 mg/kg in terms of the amount of dye. […] It is considered that access of serum protein to the near-infrared organic dye was limited by bonding the branched chain PEG to the near-infrared organic dye, accumulation into a liver was reduced and, as a result, the retentivity in blood was acquired.

[4] = Tumor accumulation evaluated by fluorescence of tumor homogenate; assay type: in vivo; conditions: intravenous, 32 nmol in terms of the amount of dye, colon 26 tumor-bearing mouse, tail vein, 32 nmol as dye, 24 hours after administration
Protocol: The tumor accumulation was evaluated by an intraveneous injection of 100 microliters (13 nmol in terms of ICG) of various ICG-PEG aqueous solution into tumor-bearing mouse models, in which various cells were subcutaneously transplanted into BALB/c Slc-nu/nu mice. The mice were euthanized with a carbon dioxide gas 24 hours after the administration. Subsequently, each cancer tissue was enucleated. The cancer tissue was transferred to a plastic tube, 1% Triton-X100 aqueous solution 1.25 times the cancer tissue in weight was added, and a homogenate was produced using a plastic pestle. […] The amount of dye in the cancer tissue (% ID/g) was quantified by using IVIS (registered trademark) Imaging System 200 Series (produced by Caliper Life Science Inc.) and measuring the fluorescent intensity of the solution of the dye extracted from the tumor tissue and the standard solution for calibration in the state of the plastic tube.
In order to evaluate the tumor accumulation of the compound, a contrast medium was administered to a tail vein of a tumor-bearing mouse which had been transplanted a colon 26 cell line. […] Then, tumor accumulation 1 day after administration of the contrast medium into the tumor-bearing mouse was evaluated by photoacoustic imaging and fluorescence. […] The amount of accumulation into a tumor of the mouse was evaluated using fluorescence, as described below. […]

[5] = nude mouse, tail vein, 0.5 mg/kg as dye, ICG 1 day after administration = 1

CC1(C)C(/C=C/C=C/C=C/C=C2/N(CCCCS(=O)(=O)[O-])c3ccc4ccccc4c3C2(C)C)=[N+](CCCCS(=O)(=O)[O-])c2ccc3ccccc3c21.[Na+] [ICG, Indocyanine Green]
Time after administration until photoacoustic signal intensity is reduced to the level of the blood [1]: several tens of minutes | Half-life in blood [2]: about several minutes | Relative photoacoustic intensity (1 day after administration) (colon 26 cell line): 1 | Retentivity in blood ([3]; in words): disappeared from the blood promptly | Relative concentration in blood, 1 week after [3, 5]: 0.72 | Relative concentration in blood, 1 hour after [3, 5]: 36.7 | Relative concentration in blood, 3 hours after [3, 5]: 19 | Relative concentration in blood, 2 days after [3, 5]: 0.89 | Relative concentration in blood, 1 day after ([3]; nude mouse, tail vein, 0.5 mg/kg as dye, ICG 1 day after administration = 1 (Table 6)): 1 | Relative concentration in blood (1 day after administration) ([3]; nude mouse, tail vein, 0.5 mg/kg as dye, concentration of ICG in blood 1 day after administration = 1 (Table 5)): 1 | tissue uptake at 24 h [4]: 0.1 %ID/g
